Values after ≈ are worked out from the molar mass of the structure shown.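 Following 48 hours of exposure in 96-well plates, responses at five concentrations were used to interpolate endpoints linearly. GI50 is the concentration that inhibits growth by half. TGI: total growth inhibition.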 Peptide text beside a SMILES is read from it.
What was measured:
Assay in all cases: growth of human tumour cells (NCI), 48 h
A498 renal = test system: A498 renal
DU-145 prostate = test system: DU-145 prostate
EKVX NSCLC = test system: EKVX NSCLC
HCC-2998 colon = test system: HCC-2998 colon
HCT-116 colon = test system: HCT-116 colon
HL-60(TB) leukemia = test system: HL-60(TB) leukemia
HS 578T breast = test system: HS 578T breast
HT29 colon = test system: HT29 colon
IGROV1 ovarian = test system: IGROV1 ovarian
K-562 leukemia = test system: K-562 leukemia
KM12 colon = test system: KM12 colon
MALME-3M melanoma = test system: MALME-3M melanoma
MCF7 breast = test system: MCF7 breast
MDA-MB-231 breast = test system: MDA-MB-231 breast
MDA-MB-435 = test system: MDA-MB-435
MOLT-4 leukemia = test system: MOLT-4 leukemia
NCI-H23 lung = test system: NCI-H23 lung
NCI-H522 lung = test system: NCI-H522 lung
OVCAR-4 ovarian = test system: OVCAR-4 ovarian
OVCAR-8 ovarian = test system: OVCAR-8 ovarian
SF-268 CNS = test system: SF-268 CNS
SF-295 CNS = test system: SF-295 CNS
SK-MEL-2 melanoma = test system: SK-MEL-2 melanoma
SK-MEL-5 melanoma = test system: SK-MEL-5 melanoma
SNB-19 CNS = test system: SNB-19 CNS
SNB-75 CNS = test system: SNB-75 CNS
SR leukemia = test system: SR leukemia
SW-620 colon = test system: SW-620 colon
TK-10 renal = test system: TK-10 renal
UACC-257 melanoma = test system: UACC-257 melanoma
UACC-62 melanoma = test system: UACC-62 melanoma
CCRF-CEM leukemia = test system: CCRF-CEM leukemia
SN12C renal = test system: SN12C renal
786-0 renal = test system: 786-0 renal
A549 NSCLC = test system: A549 NSCLC
ACHN renal = test system: ACHN renal
BT-549 breast = test system: BT-549 breast
CAKI-1 renal = test system: CAKI-1 renal
COLO 205 colon = test system: COLO 205 colon
HCT-15 colon = test system: HCT-15 colon
HOP-62 NSCLC = test system: HOP-62 NSCLC
HOP-92 NSCLC = test system: HOP-92 NSCLC
LOX IMVI melanoma = test system: LOX IMVI melanoma
M14 melanoma = test system: M14 melanoma
NCI-H226 lung = test system: NCI-H226 lung
NCI-H460 lung = test system: NCI-H460 lung
OVCAR-3 ovarian = test system: OVCAR-3 ovarian
OVCAR-5 ovarian = test system: OVCAR-5 ovarian
PC-3 prostate = test system: PC-3 prostate
RPMI-8226 leukemia = test system: RPMI-8226 leukemia
RXF 393 renal = test system: RXF 393 renal
SF-539 CNS = test system: SF-539 CNS
SK-MEL-28 melanoma = test system: SK-MEL-28 melanoma
SK-OV-3 ovarian = test system: SK-OV-3 ovarian
T-47D breast = test system: T-47D breast
U251 CNS = test system: U251 CNS
UO-31 renal = test system: UO-31 renal

Compound: CC/C(=C\c1ccc(Cl)c(Cl)c1)[N+](=O)[O-]
- TGI (A498 renal): 24.1 µM
- TGI (DU-145 prostate): 5.39 µM
- TGI (EKVX NSCLC): 7.88 µM
- TGI (HCC-2998 colon): 3.59 µM
- TGI (HCT-116 colon): > 100 µM
- TGI (HL-60(TB) leukemia): 5.67 µM
- TGI (HS 578T breast): > 100 µM
- TGI (HT29 colon): > 100 µM
- TGI (IGROV1 ovarian): 3.31 µM
- TGI (K-562 leukemia): 47.4 µM
- TGI (KM12 colon): 10.4 µM
- TGI (MALME-3M melanoma): 4.11 µM
- TGI (MCF7 breast): 3.48 µM
- TGI (MDA-MB-231 breast): 5.4 µM
- TGI (MDA-MB-435): 3.1 µM
- TGI (MOLT-4 leukemia): 2.01 µM
- TGI (NCI-H23 lung): 5.21 µM
- TGI (NCI-H522 lung): 3.49 µM
- TGI (OVCAR-4 ovarian): 7.57 µM
- TGI (OVCAR-8 ovarian): 3.4 µM
- TGI (SF-268 CNS): 4.57 µM
- TGI (SF-295 CNS): 5.36 µM
- TGI (SK-MEL-2 melanoma): 4.85 µM
- TGI (SK-MEL-5 melanoma): 3.92 µM
- TGI (SNB-19 CNS): 5.7 µM
- TGI (SNB-75 CNS): > 100 µM
- TGI (SR leukemia): 3.61 µM
- TGI (SW-620 colon): > 100 µM
- TGI (TK-10 renal): 4.04 µM
- TGI (UACC-257 melanoma): 3.58 µM
- TGI (UACC-62 melanoma): 3.89 µM

Compound: CC(=O)NC(C(=O)NC(C)C(=O)N1CCCC1C(=O)O)C(C)C (stereo not drawn) (Ac-Val-Ala-Pro-OH; configuration not given here)
- GI50 (CCRF-CEM leukemia): 89.9 mg/L (≈ 275 µM)
- GI50 (HS 578T breast): 65.6 mg/L (≈ 200 µM)
- GI50 (SK-MEL-2 melanoma): 83.8 mg/L (≈ 256 µM)
- GI50 (SN12C renal): 46.6 mg/L (≈ 142 µM)

Compound: O=C1Nc2ccc(Br)cc2/C1=C/C(=O)c1ccccc1
- TGI (786-0 renal): 3.28 µM
- TGI (A498 renal): 34.6 µM
- TGI (A549 NSCLC): > 62.6 µM
- TGI (ACHN renal): 3.32 µM
- TGI (BT-549 breast): 24.6 µM
- TGI (CAKI-1 renal): 20 µM
- TGI (CCRF-CEM leukemia): 8.36 µM
- TGI (COLO 205 colon): 3.97 µM
- TGI (DU-145 prostate): 23.8 µM
- TGI (EKVX NSCLC): 28.6 µM
- TGI (HCC-2998 colon): 29 µM
- TGI (HCT-116 colon): 9.04 µM
- TGI (HCT-15 colon): 6.51 µM
- TGI (HL-60(TB) leukemia): > 29.1 µM
- TGI (HOP-62 NSCLC): 61.2 µM
- TGI (HOP-92 NSCLC): 12.5 µM
- TGI (HS 578T breast): > 55.4 µM
- TGI (HT29 colon): 3.39 µM
- TGI (IGROV1 ovarian): 13.3 µM
- TGI (K-562 leukemia): > 100 µM
- TGI (KM12 colon): 23 µM
- TGI (LOX IMVI melanoma): 4.02 µM
- TGI (M14 melanoma): 28.1 µM
- TGI (MALME-3M melanoma): 16.8 µM
- TGI (MCF7 breast): 15.3 µM
- TGI (MDA-MB-231 breast): 29.5 µM
- TGI (MDA-MB-435): 42 µM
- TGI (MOLT-4 leukemia): > 26.4 µM
- TGI (NCI-H226 lung): 43.8 µM
- TGI (NCI-H23 lung): 23.8 µM
- TGI (NCI-H460 lung): 36.9 µM
- TGI (NCI-H522 lung): 5.17 µM
- TGI (OVCAR-3 ovarian): 18.2 µM
- TGI (OVCAR-4 ovarian): 30.5 µM
- TGI (OVCAR-5 ovarian): 53.6 µM
- TGI (OVCAR-8 ovarian): 5.31 µM
- TGI (PC-3 prostate): 26.9 µM
- TGI (RPMI-8226 leukemia): > 23.6 µM
- TGI (RXF 393 renal): 5.45 µM
- TGI (SF-268 CNS): 50.8 µM
- TGI (SF-295 CNS): 32.5 µM
- TGI (SF-539 CNS): 13 µM
- TGI (SK-MEL-2 melanoma): 32.3 µM
- TGI (SK-MEL-28 melanoma): 32.1 µM
- TGI (SK-MEL-5 melanoma): 41.7 µM
- TGI (SK-OV-3 ovarian): 31.9 µM
- TGI (SN12C renal): 10.5 µM
- TGI (SNB-19 CNS): 37.7 µM
- TGI (SNB-75 CNS): 32 µM
- TGI (SR leukemia): > 24.9 µM
- TGI (SW-620 colon): 6.42 µM
- TGI (T-47D breast): 32.1 µM
- TGI (TK-10 renal): 3.7 µM
- TGI (U251 CNS): 36.7 µM
- TGI (UACC-257 melanoma): 29 µM
- TGI (UACC-62 melanoma): 32.9 µM
- TGI (UO-31 renal): 6.98 µM

From PubChem BioAssay (NCI)
